In patent US20230355547A1, “STABILIZATION OF VITAMIN A IN A NUTRITIONAL SOLUTION” (BAXTER INTERNATIONAL INC., priority 2020, published 2023):

Test: Impact of dissolved oxygen on the stability of vitamin A in a 10% soybean lipid emulsion (Example 4)
Assay type: physicochemical
Conditions: more than 6 months at 40° C., independently of light exposure
Excerpt: Accordingly, at an oxygen level of about 0.300 ppm vitamin A after 6 months is no longer considered stable, i.e. recovery drops below 80%.
Various methods can be used to determine the DO content of a given solution. Generally, electrochemical or optical sensors are used for determining the DO concentration according to the invention. A preferred method comprises using a fiber-optic oxygen meter such as MICROX TX3, which is a single-channel, temperature-compensated oxygen meter with fiber-optic trace oxygen microsensors based on a glass fiber (e.g. 140 μm). […] For data visualization during measurements, the oxygen meter is connected to a LCD & Data-Logger Unit.
The stability of vitamin A was tested in a 10% soybean lipid emulsion having a peroxide level of below 5 milliequivalents (mEq) O2/kg. The lipid emulsion contained vitamin A in a concentration of 1 dd/25 mL, as well as vitamin E in a concentration of 1 dd/25 mL and the pH was adjusted to 5.9 with HCl.
FIG. 2 depicts the dependency of vitamin A recovery on the presence of dissolved oxygen.

stability in the presence of oxygen of above 0.3 ppm: not stable
Substance: vitamin A
